Test results from US8907093B2, “Carboxylic acid derivatives having an oxazolo[4,5-c]pyridine ring” (Sanofi, priority 2011, dated 2014).

Biological target: T1, human Edg 1 receptor (Homo sapiens, UniProt P21453)
T1 construct: FLAG (N); expressed in transfected cells; membrane preparation
Test: GTP-γ-S assay using human Edg 1 receptors (scintillation proximity assay, CHO Flp-In membrane preparation)
Type: biochemical
Settings: test compound at 10 μM; [35S]GTP-γ-S binding; membranes of CHO Flp-In cells overexpressing human Edg 1
From the text: A) GTP-γ-S assay using human Edg 1 receptors
In order to determine the Edg 1 receptor activation by the compounds of the invention, a GTP-γ-S ((GTP-γ-S=guanosine 5′-[thio]triphosphate) assay for G-protein coupled receptor binding based on the scintillation proximity assay principle was used, employing a cell membrane preparation from a CHO Flp-In cell line which constitutively overexpresses the human Edg 1 receptor.
A membrane preparation was obtained by standard methods from the afore-described CHO Flp-In cell line constitutively overexpressing the human Edg 1 receptor. Briefly, the cryopreserved cells were taken in culture and grown until confluency in T175 cell culture flasks (Becton Dickinson, cat. no. 35 5001). […] Protein concentration of the membrane preparation was determined in a sample by means of a commercial protein assay (Bio-Rad, DC Protein Assay, cat. nos. 500-0113, 500-0114, 500-0115).
The Edg 1 membrane preparation obtained in (b) was employed in a commercially available scintillation proximity assay (SPA) kit for G-protein coupled receptor binding from Amersham Biosciences/GE Healthcare (code RPNQ0210), in which ligand-induced binding of ^35S-radiolabeled GTP-γ-S to the receptor-containing membrane, which is bound to scintillation beads, stimulates the emission of light and allows to quantify the in vitro activity of the Edg 1 agonistic compound. […]

T1 sequence (P21453 whole entry): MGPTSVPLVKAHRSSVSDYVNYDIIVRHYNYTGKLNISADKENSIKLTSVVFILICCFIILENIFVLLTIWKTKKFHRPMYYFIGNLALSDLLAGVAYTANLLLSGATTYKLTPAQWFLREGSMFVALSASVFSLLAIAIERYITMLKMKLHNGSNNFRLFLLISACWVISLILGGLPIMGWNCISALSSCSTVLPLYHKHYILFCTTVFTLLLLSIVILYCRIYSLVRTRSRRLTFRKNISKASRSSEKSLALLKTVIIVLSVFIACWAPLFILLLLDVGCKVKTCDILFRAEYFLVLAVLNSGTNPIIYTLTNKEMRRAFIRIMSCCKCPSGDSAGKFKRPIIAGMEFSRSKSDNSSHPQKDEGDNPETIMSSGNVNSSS

- receptor activation in percent of the respective high control (10 μM S1P, regarded as 100% activation): 86%
Structure (SMILES): Cc1cc(-c2nc3cnc(Oc4ccccc4F)cc3o2)cc(C)c1OCC(=O)O [Example 1, {4-[6-(2-Fluorophenoxy)oxazolo[4,5-c]pyridin-2-yl]-2,6-dimethylphenoxy}acetic acid]
